Reference: paper PMC11413853, “Discovery of VU6007496: Challenges in the Development of an M1 Positive Allosteric Modulator Backup Candidate” (ACS Chemical Neuroscience, 2024)
pEC50: −log10 of the molar value.

How the values were obtained:
hM2-5 = test: Muscarinic selectivity, human M2-5; assay type: cell-based
Protocol: Procedures for Biological Experiments
Calcium mobilization assays:
All functional cell-based assays were performed in stable Chinese Hamster Ovary (CHO) cell lines constitutively expressing human M5 or human M1 receptors. For full muscarinic selectivity, CHO cells expressing human M3, human M2 plus Gqi5 or human M4 plus Gqi5 were used. Cells were plated at 15,000 cells per 20 µL per well in black 384-well, TC-treated, clear-bottomed plates (Greiner) in Ham’s F12 medium supplemented with 10% FBS and 20 mM HEPES. Cells were incubated overnight at 37 °C under 5% CO2. The following day, the medium was removed and replaced with 1.2 µM Fluo-4 AM (Invitrogen) in assay buffer (Hank’s Balanced Salt Solution supplemented with 20 mM HEPES and 2.5 mM Probenecid, pH 7.4) and the cells were incubated for 50 minutes at 37 °C under 5% CO2. Dye was then removed and replaced with 20 µL of fresh assay buffer. Test compounds at a 10 mM concentration in DMSO were serially diluted in DMSO (either 1:3 or 1:5 dilution) to create a 10-point concentration series. The DMSO solutions were then diluted in assay buffer resulting in compound solutions at 2-times the final assay concentration with the highest assay concentration of 30 µM. The compound plate, cell plate, and plates containing EC20 and EC80 acetylcholine concentrations were placed in a Hamamatsu FDSS 6000 or 7000 kinetic imaging plate reader equipped to measure Ex480/Em540 fluorescence. Data were collected at 1 frame per second. After 2 seconds of collecting baseline fluorescence, 20 µL of the compound solutions were added to the cell plate. This was followed by the addition of an EC20 concentration of acetylcholine at 142 seconds. […] The fluorescence signal was collected for a total of 300 seconds. […] Data were imported and analyzed in Dotmatics Informatics software. by normalizing all data in the individual kinetic traces to the initial fluorescence read. The magnitude of each agonist addition was then determined and normalized to the average maximum response. […] The IC50 determined using the EC80 of acetylcholine is the value reported. […]

[1] = Plasma protein binding, human; assay type: in vitro ADME; details: pH 7.4, read-out: fu,plasma human
Protocol: Plasma protein binding and Brain homogenate binding: Determination of fraction unbound (f u) in plasma was conducted in vitro via equilibrium dialysis using HTDialysis (HTD) membrane plates. The top half of the plate was filled with 100 uL of Dubelco’s Phosphate Buffered Saline, pH 7.4 (DPBS). Compounds were diluted into plasma from each species (5 µM final concentration), which was aliquoted in triplicate to the ‘bottom half’ of the prepared HTD plate wells. The HTD plate was sealed and incubated for 6 hours at 37 °C. Following incubation, each well (both top and bottom halves) were transferred (20 µL) to the corresponding wells of a 96-shallow-well (V-bottom) plate. The daughter plates were then matrix-matched (DPBS side wells received equal volume of plasma, and plasma side wells received equal volume of DPBS), and extraction solution (120 µL; acetonitrile containing 50 nM carbamazepine as IS) was added to all wells of both daughter plates to precipitate protein and extract test article. The plates were then sealed and centrifuged (3500 rcf) for 10 minutes at ambient temperature. Supernatant (60 µL) from each well of the daughter plates was then transferred to the corresponding wells of new daughter plates (96-shallow-well, V bottom) containing water (Milli-Q, 60 µL/well), and the plates were sealed in preparation for LC-MS/MS analysis (see LC-MS/MS analysis method below).
The unbound fraction (f u) was calculated following the equation below, and mean values for each species were calculated from 3 replicates. […]
Fraction unbound for both plasma and brain samples was determined using Equation 4.
Equation 4 Determination of fraction unbound in plasma.

[2] = Predicted hepatic clearance, rat hepatic microsomes; assay type: in vitro ADME
Protocol: Intrinsic clearance: Human or rat hepatic microsomes (0.5 mg/mL) and 1 µM test compound were incubated in 100 mM potassium phosphate pH 7.4 buffer with 3 mM MgCl2 at 37 °C with constant shaking. After a 5 min preincubation, the reaction was initiated by the addition of NADPH (1 mM). At selected time intervals (0, 3, 7, 15, 25, and 45 min), aliquots were taken and subsequently placed into a 96-well plate containing cold acetonitrile with internal standard (50 ng/mL carbamazepine). Plates were then centrifuged at 3000 rcf (4 °C) for 10 min, and the supernatant was transferred to a separate 96-well plate and diluted 1:1 with water for LC/MS/MS analysis. The in vitro half-life ( 1/2, min, Eq. 1), intrinsic clearance (CLint, mL/min/kg, Eq. 2), and subsequent predicted hepatic clearance (CLhep, mL/min/kg, Eq. 3) was determined employing the […]
where k represents the slope from linear regression analysis of the natural log percent remaining of a test compound as a function of incubation time […]
(2) CLint = in vitroT1/2 x mg microsomes x gram liver x kg body wt ascale-up factors: of 20 (human) or 45 (rat) […]
where Qh (hepatic blood flow, mL/min/kg) is 21 (human) or 70 (rat).
LC/MS/MS Bioanalysis of Samples from Plasma Protein Binding and Intrinsic Clearance […]
Samples were analyzed on a Thermo Electron TSQ Quantum Ultra triple quad mass spectrometer (San Jose, CA) via electrospray ionization (ESI) with two Themo Electron Accella pumps (San Jose, CA), and a Leap Technologies CTC PAL autosampler (Carrboro, NC). Analytes were separated by gradient elution on a dual column system with two Thermo Hypersil Gold (2.1 x 30 mm, 1.9 µm) columns (San Jose, CA) thermostated at 40 °C. HPLC mobile phase A was 0.1% formic acid in water and mobile phase B was 0.1% formic acid in acetonitrile. The gradient started […]
for 0.2 min; returned to 10% B in 0.1 min. The total run time was 1.3 min and the HPLC flow rate was 0.8 mL/min. […]

Compound	pEC50 (hM2-5)	fraction unbound at 6 h, 5 µM [1]	Predicted CLhep, rat [2]	activity on human M2–5 (hM2-5)
Cn1ccc(-c2ccc(Cc3cc(C(=O)NC4CCOCC4)nc4ccn(C)c34)cc2)n1 [compound 11]	< 4.52	0.016	38 mL/min/kg	
Cn1ccc(-c2ccc(Cc3cc(C(=O)NC4CCOCC4)nc4ccsc34)cc2)n1 [compound 12]	< 4.52	0.005	33 mL/min/kg	
Cn1ccc2nc(C(=O)NC3CCOCC3)cc(Cc3ccc(-c4cc[nH]n4)cc3)c21 [compound 24]		0.047	44 mL/min/kg	inactive
